Several values for one entry are separate records, joined by “and”; a condition that tells them apart may be missing. Identical values can stand only once. Like-named read-outs stand apart in the source and are kept apart here. Marks after values point to notes of the source that are not given here.
Assays:
mouse uPA = experiment: Mouse specific uPA ELISA of xenograft tumour homogenates; type: in vivo; conditions: versus tumours from mock-treated animals, 125 mg/kg BB-94 daily
Text: Tumours from untreated control mice and from mice receiving BB94 were homogenized and assayed for mouse uPA content using a mouse specific uPA ELISA.

plg^−/− mice [1] = experiment: Wound healing, 20 mm full thickness skin incision; type: in vivo, mouse; conditions: Galardin 2.5 mg i.p. once daily
Text: The methods used followed those described by Rømer et al, 1996. Four groups of mice were set up, consisting of 12 plg^−/− mice (group 1), another 12 plg^−/− mice (group 2), 12 plg^+/+ mice (group 3) and another 12 plg^+/+ mice (group 4). All mice were then wounded with a standardised 20 mm long, full thickness skin incision on the back.
(§1) Each day after wounding the length of the open wounds was carefully measured and recorded. The time taken for each skin wound to completely close was also noted.

plasmin = plasmin (Homo sapiens, UniProt P00747); conditions: very weak inhibition; a million-fold higher than for the metalloproteases; cited from earlier work
[2] = biological target: angiotensin converting enzyme (ACE) (Homo sapiens, UniProt P12821); conditions: very weak inhibition; a million-fold higher than for the metalloproteases; cited from earlier work
plg^+/+ mice [3] = conditions: Galardin 2.5 mg, aprotinin 13,000 KIU and tranexamic acid 10 mg per day i.p.
Text: In the evening, wild-type (plg^+/+) female mice were placed together with plg^+/+ male mice of proven potency. Bach morning the females were closely examined for the characteristic vaginal “plugs” formed after mating, and the mated females were removed and allocated to four groups.

plg^+/+ mice [4] = conditions: 2.5 mg i.p. daily, 5 mice
plg^+/+ mice [5] = experiment: Wound healing, 20 mm full thickness skin incision; type: in vivo, mouse; conditions: for time after which all wounds were healed: aprotinin 13,000 KIU and/or tranexamic acid 10 mg per day in three i.p. injections, untreated 17 days
Text: Four groups of mice were set up, consisting of 12 plg^−/− mice (group 1), another 12 plg^−/− mice (group 2), 12 plg^+/+ mice (group 3) and another 12 plg^+/+ mice (group 4). All mice were then wounded with a standardised 20 mm long, full thickness skin incision on the back.
as §1
(§2) The time taken for each skin wound to completely close was also noted.
as §2, §2

Lewis lung carcinoma = system: Lewis lung carcinoma
Method: Four groups of 17 mice were injected subcutaneously with Lewis lung carcinoma tissue mince (approx. 1.0×10^6 cells). The first group (CON) were treated only with buffered vehicle. The second group (TA/AP) was treated i.p. three times each day with a mixture of tranexamic acid (TA) and aprotinin (AP), so that the total dosage was 10 mg TA and 13,000 KIU AP per day per mouse. […] The tumour growth in the mice was monitored every 2-3 days by careful measurement with callipers of the longest and shortest axes of the palpable tumours, and the calculated volume was plotted as a function of time. The growth rate of the tumours was followed until death and the survival of mice in the four groups was analyzed by a Kaplan-Meier plot. Histological sections from the primary murine Lewis Lung carcinoma were analyzed by in situ hybridization for the expression of stromelysin-1 and gelatinase-B.

plg^−/− mice [6] = system: plg^−/− mice
Text: In the evening, female plg^−/− mice (8-10 weeks old) were placed in cages together with male plg^−/− mice of proven potency.

plg^−/− mice [7] = experiment: Post-lactational mammary gland involution (gland weight); type: in vivo, mouse
Text: (§3) After mice had given birth, the litter was taken away from the mother and adjusted to eight pups, adding pups from other mothers if necessary in order to provide a constant feeding load on each mother. Lactation and feeding with the eight pups were allowed to proceed for 7-8 days, at which time the litter was removed (day 1).

plg^+/+ mice [8] = experiment: as above; type: in vivo, mouse
Text: as §3

wild-type mice = experiment: Keratinocyte migration distance in skin wounds (morphometry); type: in vivo, mouse; conditions: 100 mg/kg daily for 7 days after skin wounding
Method: (§4) Keratinocyte migration. […] 18-20 sections of wound tissue from each group of mice were then analyzed microscopically, and the keratinocyte migration distance along the base of the epidermal outgrowth from the wound edge to the tip of the wedge (see Rømer et al., FIG. 2) was measured blindly by computer-assisted morphometry.

Plg-deficient mice = experiment: as above; type: in vivo, mouse; conditions: 100 mg/kg daily for 7 days after skin wounding
Method: as §4

stromelysin-1 (MMP-3) = stromelysin-1 (MMP-3) (Homo sapiens, UniProt P08254); conditions: cited from earlier work
plg^−/− mice [9] = experiment: Post-partum uterine involution (uterus weight); type: in vivo, mouse
Text: (§5) Treatment was continued to 4 days post-partum and on the fifth day post-partum the mice were sacrificed and the uteri removed, dissected free of adhering fatty tissue, and blotted dry before weighing.

plg^+/+ mice [10] = experiment: Post-partum uterine involution (uterus weight); type: in vivo, mouse
Text: as §5

[11] = system: gelatinase B, collagenase-3, stromelysin-1, gelatinase A mRNA; experiment: MMP mRNA expression in wound tissue by in situ hybridization; type: in vivo, mouse; conditions: wild-type and Plg-deficient mice, 100 mg/kg daily, versus mock treated
Method: In parallel experiments, the mice were sacrificed and tissue sections prepared from the wound site. The tissue sections were analyzed for expression of various metalloproteases by in situ hybridisation and for matrix content by staining.
In situ hybridization. […] The mouse macrophage elastase expression system was investigated with a single probe, while the expression of all other metalloproteases were investigated with two different non-overlapping probes, which in all cases gave identical results.

[12] = Biological half-life of aprotinin in blood plasma; type: in vivo, mouse; conditions: single i.p. injection of 2.1 mg
Method: Fifteen mice (weighing approx. 25 g each) were injected i.p. with 0.75 ml of aprotinin solution (20,000 KIU/ml; approx. 2.1 mg) and at time intervals of 0.5, 1.5, 3.0, 6.0 and 24 h thereafter three mice were sacrificed and blood collected by cardiac puncture into citrate anti-coagulant tubes. Each plasma sample was ultrafiltrated through a 20,000 MW cut-off membrane, and the aprotinin level in the ultrafiltrate was determined by inhibition of the calorimetric activity of a standard trypsin solution.

[13] = 2.5 mg/mouse i.p. daily from weaning day 2, weighed day 5, single animals
[14] = 2.5 mg/mouse i.p. daily, weaning day 5

angiotensin converting enzyme (ACE), sequence (P12821 30-1306, species assumed): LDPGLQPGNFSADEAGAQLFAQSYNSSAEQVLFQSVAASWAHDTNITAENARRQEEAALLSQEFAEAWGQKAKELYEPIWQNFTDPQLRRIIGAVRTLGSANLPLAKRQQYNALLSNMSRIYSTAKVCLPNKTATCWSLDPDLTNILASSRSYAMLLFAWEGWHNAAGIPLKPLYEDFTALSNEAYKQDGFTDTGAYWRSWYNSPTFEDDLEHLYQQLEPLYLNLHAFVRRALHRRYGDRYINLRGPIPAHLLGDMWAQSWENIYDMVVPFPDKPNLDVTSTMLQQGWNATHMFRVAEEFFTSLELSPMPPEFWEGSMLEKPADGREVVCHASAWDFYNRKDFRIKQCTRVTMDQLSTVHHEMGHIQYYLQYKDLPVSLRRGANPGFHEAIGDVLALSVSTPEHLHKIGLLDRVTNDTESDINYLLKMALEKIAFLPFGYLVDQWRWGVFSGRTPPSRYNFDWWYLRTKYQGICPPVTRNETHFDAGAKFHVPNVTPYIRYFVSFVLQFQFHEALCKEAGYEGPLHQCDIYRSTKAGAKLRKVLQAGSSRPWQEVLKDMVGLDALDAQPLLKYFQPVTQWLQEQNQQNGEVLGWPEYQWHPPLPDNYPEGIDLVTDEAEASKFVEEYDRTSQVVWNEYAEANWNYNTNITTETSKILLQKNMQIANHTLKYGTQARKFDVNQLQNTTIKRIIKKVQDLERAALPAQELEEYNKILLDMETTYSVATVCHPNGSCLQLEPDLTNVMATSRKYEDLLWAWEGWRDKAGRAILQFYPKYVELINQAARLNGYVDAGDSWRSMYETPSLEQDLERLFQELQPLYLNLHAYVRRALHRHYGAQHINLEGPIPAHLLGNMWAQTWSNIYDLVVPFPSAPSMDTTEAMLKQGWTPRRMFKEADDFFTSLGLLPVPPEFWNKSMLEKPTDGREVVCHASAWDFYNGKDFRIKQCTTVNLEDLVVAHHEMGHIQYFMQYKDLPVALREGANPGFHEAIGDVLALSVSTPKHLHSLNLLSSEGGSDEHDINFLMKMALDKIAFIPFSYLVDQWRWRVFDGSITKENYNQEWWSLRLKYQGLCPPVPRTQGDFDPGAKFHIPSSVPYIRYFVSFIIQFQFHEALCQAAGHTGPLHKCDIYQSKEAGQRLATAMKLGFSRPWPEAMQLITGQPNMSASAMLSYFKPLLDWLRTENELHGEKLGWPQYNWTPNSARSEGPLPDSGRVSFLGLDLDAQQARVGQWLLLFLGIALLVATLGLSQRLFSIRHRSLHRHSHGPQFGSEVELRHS
plasmin, sequence (P00747 581-810 limits assumed, species assumed): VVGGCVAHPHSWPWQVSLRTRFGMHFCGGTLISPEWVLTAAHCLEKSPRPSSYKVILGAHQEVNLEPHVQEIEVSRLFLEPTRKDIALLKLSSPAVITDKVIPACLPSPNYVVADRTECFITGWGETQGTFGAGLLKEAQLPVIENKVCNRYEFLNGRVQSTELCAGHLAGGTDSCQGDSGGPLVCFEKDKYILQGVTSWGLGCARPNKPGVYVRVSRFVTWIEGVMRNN
plasmin, sequence (P00747 97-580 partner limits assumed, species assumed): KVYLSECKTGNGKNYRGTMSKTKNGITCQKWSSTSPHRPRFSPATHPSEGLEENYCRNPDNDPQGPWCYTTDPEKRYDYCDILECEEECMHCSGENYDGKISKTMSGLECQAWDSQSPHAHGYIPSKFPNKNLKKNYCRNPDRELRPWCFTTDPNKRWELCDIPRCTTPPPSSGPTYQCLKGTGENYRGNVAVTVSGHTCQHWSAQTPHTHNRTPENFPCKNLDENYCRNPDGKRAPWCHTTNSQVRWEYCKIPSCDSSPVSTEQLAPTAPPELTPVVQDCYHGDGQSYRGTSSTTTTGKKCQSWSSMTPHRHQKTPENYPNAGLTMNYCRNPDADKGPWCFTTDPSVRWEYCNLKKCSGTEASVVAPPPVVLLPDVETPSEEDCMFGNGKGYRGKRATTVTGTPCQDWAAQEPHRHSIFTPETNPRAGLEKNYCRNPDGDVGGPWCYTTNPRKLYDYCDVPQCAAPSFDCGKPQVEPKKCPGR
stromelysin-1 (MMP-3), sequence (P08254 100-477, species assumed): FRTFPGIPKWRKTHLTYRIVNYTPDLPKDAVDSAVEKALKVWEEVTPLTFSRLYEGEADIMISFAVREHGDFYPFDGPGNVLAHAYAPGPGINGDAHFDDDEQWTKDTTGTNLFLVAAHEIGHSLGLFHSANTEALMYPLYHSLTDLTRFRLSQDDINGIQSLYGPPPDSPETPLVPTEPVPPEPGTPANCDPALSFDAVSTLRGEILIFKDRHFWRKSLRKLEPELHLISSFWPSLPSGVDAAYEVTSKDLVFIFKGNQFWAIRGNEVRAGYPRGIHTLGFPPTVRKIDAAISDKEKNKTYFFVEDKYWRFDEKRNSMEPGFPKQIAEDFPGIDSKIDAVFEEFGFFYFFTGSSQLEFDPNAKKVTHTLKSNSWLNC

Molecule: CNC(=O)[C@H](Cc1ccccc1)NC(=O)[C@H](CC(C)C)[C@H](CSc1cccs1)C(=O)NO [BB-94, Batimastat]
- upregulation of mouse uPA in the tumours (mouse uPA): ~2 fold

Molecule: CNC(=O)[C@H](Cc1c[nH]c2ccccc12)NC(=O)[C@@H](CC(=O)NO)CC(C)C [Galardin™]
- healed wounds 38 days after wounding (plg^−/− mice [1]): none
- healed wounds after 80 days (plg^−/− mice [1]): none
- Ki (plasmin): in the millimolar range
- Ki [2]: in the millimolar range
- production of offspring (plg^+/+ mice [3]): unaffected
- Pregnancies (plg^+/+ mice [4]): 3
- wounds healed after 38 days (plg^+/+ mice [5]; Galardin 2.5 mg i.p. once daily): 22%
- survival of the tumour-bearing mice (Lewis lung carcinoma; 10 mg TA and 13,000 KIU AP per day i.p., 1.8 mg Galardin per day per mouse): considerable prolongation
- long-term survival (mice per group of 17) (Lewis lung carcinoma; treatment stopped day 50): no long-term survivors
- % pregnant (plg^−/− mice [6]; 2.5 mg i.p. daily day 3.5 to 18.5): 25%
- Pregnancies (plg^−/− mice [6]; 2.5 mg i.p. daily day 3.5 to 18.5, 4 mice): 1*
- % pregnant (plg^−/− mice [6]; 2.5 mg i.p. daily day 3.5 to 18.5, listed as G): 25* %
- Gland 4 Weight (plg^−/− mice [7]; [13]): 262 mg and 342 mg and 251 mg
- Mean Weight (gland 4) (plg^−/− mice [7]; [14]): 285 mg
- % Control (gland weight) (plg^−/− mice [7]; control = plg^+/+ untreated): 262%
- Gland 4 Weight (plg^+/+ mice [8]; [13]): 188 mg and 198 mg and 146 mg
- Mean Weight (gland 4) (plg^+/+ mice [8]; [14]): 177 mg
- % Control (gland weight) (plg^+/+ mice [8]; control = plg^+/+ untreated): 162%
- keratinocyte migration distance (mean value±standard deviation) (wild-type mice): 268±80 arbitrary units
- keratinocyte migration distance (mean value±standard deviation) (Plg-deficient mice): 208±60 arbitrary units
- Ki (stromelysin-1 (MMP-3)): 30 nM
- change in 5 day postpartum uterine weight versus control (plg^−/− mice [9]; Plg^−/− mice, 90 mg/kg, p=0.012): significant increase
- Mean Weight ± SD (uterus) (plg^−/− mice [9]; plg^−/− mice, 90 mg/kg i.p. daily, fifth day post-partum): 337 ± 70.9 mg
- Weight (uterus) (plg^−/− mice [9]; plg^−/− mice, 90 mg/kg i.p. daily, fifth day post-partum, single animals, 90 mg/kg): 311 mg and 408 mg and 236 mg and 328 mg and 401 mg
- Mean Weight ± SD (uterus) (plg^+/+ mice [10]; 90 mg/kg i.p. daily, fifth day post-partum): 221 ± 65.3 mg
- Weight (uterus) (plg^+/+ mice [10]; 90 mg/kg i.p. daily, fifth day post-partum, single animals, 90 mg/kg): 288 mg and 285 mg and 135 mg and 206 mg and 192 mg
- change in 5 day postpartum uterine weight versus control (plg^+/+ mice [10]; 90 mg/kg, p=0.158): did not produce a significant increase
- expression of gelatinase A and stromelysin-3 mRNA in granulation tissue fibroblasts [11]: upregulated
- expression of gelatinase B, collagenase-3 and stromelysin-1 mRNA in leading-edge keratinocytes [11]: dramatically upregulated

Molecule: NC[C@H]1CC[C@H](C(=O)O)CC1 [tranexamic acid]
- time after which all wounds were healed (plg^+/+ mice [5]): 17 days

Molecule: aprotinin
- time after which all wounds were healed (plg^+/+ mice [5]): 24 days
- half life ([12]; mouse plasma): approx. 3 h
- plasma level ([12]; mouse): approx. 25 μg/ml

Source: US20050137121A1, “Inhibition of invasive remodelling” (priority 1996, published 2005)
